This note sets out measurements from paper PMC7156458, “Synthetic biology based construction of biological activity-related library of fungal decalin-containing diterpenoid pyrones” (Nature Communications, 2020).

Holding throughout (assay): cells
Holding throughout (set-up): species or system JFCR39 human cancer cell lines; JFCR39 panel growth inhibition, sulforhodamine B total protein after 48 h

In one assay the test system is MKN74. Particulars: Homo sapiens, MKN-74, 48 h. Summed up: (§1)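 Human cancer lines from the JFCR39 panel were cultured in RPMI-1640 with 5% FBS and 1 µg mL-1 kanamycin at 37°C, 5% CO2. Cells were exposed to compound for 48 hours, and growth was measured as total cellular protein by sulforhodamine B staining; GI50 from duplicate assays.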
The subject of another assay is MKN1. The following applies: Homo sapiens, MKN-1, 48 h. Summed up:
as §1

The next assay has as its system A549. Particulars: Homo sapiens, A549, 48 h. Summed up: as §1
The subject of a further assay is PC-3. Particulars: Homo sapiens, PC-3, 48 h. Summed up: as §1
Another assay has as its system NCI-H460. The following applies: Homo sapiens, NCI-H460, 48 h. Summed up:
as §1

For a further assay, the system named is ACHN. Particulars: Homo sapiens, ACHN, 48 h. Summed up: as §1
The test system of another assay is NCI-H23. The following applies: Homo sapiens, NCI-H23, 48 h. Summed up: as §1
The test system of the next assay is NCI-H522. Particulars: Homo sapiens, NCI-H522, 48 h. The method in brief:
as §1

The subject of a further assay is OVCAR-8. The following applies: Homo sapiens, OVCAR-8, 48 h. Summed up:
as §1

A further assay relates to HCT-116. Particulars: Homo sapiens, HCT-116, 48 h. The method in brief: as §1
The test system of another assay is DU-145. The following applies: Homo sapiens, DU-145, 48 h. Summed up: as §1
Another assay relates to HBC-5. Particulars: HBC5, 48 h. Summed up:
as §1

For a further assay, the system named is DMS273. The following applies: Homo sapiens, DMS-273, 48 h. The method in brief: as §1
The next assay has as its system SNB-78. The following applies: Homo sapiens, SNB-78, 48 h. Summed up: as §1
The next assay deals with MKN45. The following applies: Homo sapiens, MKN-45, 48 h. The method in brief:
as §1

A further assay has as its system KM-12. Particulars: Homo sapiens, KM12, 48 h. The method in brief:
as §1

Another assay has as its system LOX-IMVI. The following applies: Homo sapiens, LOX IMVI, 48 h. Summed up:
as §1

The next assay deals with SK-OV-3. Particulars: Homo sapiens, SK-OV-3, 48 h. Summed up:
as §1

A further assay concerns NCI-H226. Particulars: Homo sapiens, NCI-H226, 48 h. The method in brief: as §1
The subject of a further assay is HCT-15. Particulars: Homo sapiens, HCT-15, 48 h. The method in brief:
as §1

The next assay deals with OVCAR-5. The following applies: Homo sapiens, OVCAR-5, 48 h. The method in brief: as §1

For orientation: GI50 means the concentration that inhibits growth by half. A high value points to lower sensitivity of the cells. Regarding `C=C1CCC2C(C)(CC(=O)C=C(C)C)C(O)CCC2(C)C1Cc1c(OC)oc(CO)c(C)c1=O` (stereo not drawn) [Compound 19], the GI50 in the assay on MKN74 was 31 µM; with MKN1 it was 78.2 µM; in the assay on A549, 34.4 µM; in the assay on PC-3 it was 24.1 µM; in the assay with NCI-H460 it was 6 µM; in the assay on ACHN, 14.8 µM. Besides, the GI50 in the assay with NCI-H23 is 11.9 µM; with NCI-H522, 12.4 µM; in the assay with OVCAR-8 it was 40.8 µM; in the assay with HCT-116 it was 22.8 µM; in the assay on DU-145 it was 42.9 µM; in the assay on HBC-5 it was 31.6 µM. In addition, the GI50 in the assay on DMS273 is 9.98 µM; in the assay with SNB-78, 36.2 µM; with MKN45 it was 77.1 µM; in the assay on KM-12, 56.2 µM; in the assay on LOX-IMVI, 13.6 µM; in the assay on SK-OV-3, 83.2 µM. Besides, the GI50 with NCI-H226 was 19.1 µM; with HCT-15, 52.8 µM.
For the compound `C=C1CC[C@H]2[C@]3(C)C[C@@H](C=C(C)C)O[C@H]3CC[C@]2(C)[C@@H]1Cc1c(OC)oc(CO)c(C)c1=O` [Compound 17], the GI50 in the assay on MKN74 was 13 µM; in the assay with OVCAR-5 it was 15.5 µM; in the assay on MKN1, 19.3 µM; in the assay with A549, 12.3 µM; with PC-3, 11.1 µM; with NCI-H460 it was 0.0916 µM. For the same compound, the GI50 with ACHN is 10.8 µM; in the assay on NCI-H23, 10.8 µM; in the assay on NCI-H522, 10.5 µM; with OVCAR-8, 10.8 µM; in the assay with HCT-116, 0.953 µM; in the assay on DU-145, 13.2 µM. Besides, the GI50 in the assay with HBC-5 is 11.8 µM; with DMS273 it was 0.713 µM; in the assay with SNB-78, 14.2 µM; with MKN45 it was 14 µM; with KM-12, 14.5 µM; in the assay with LOX-IMVI, 10.4 µM. In addition, the GI50 in the assay with SK-OV-3 is 12.1 µM; in the assay with NCI-H226, 14 µM; with HCT-15, 0.942 µM.
Consider `C=C1CC[C@@H]2[C@](C)(CC[C@H]3O[C@H](C=C(C)C)C[C@@]23C)[C@@H]1Cc1c(OC)oc(CO)c(C)c1=O` [Compound 20], for which the GI50 in the assay with MKN74 is 12.9 µM; with OVCAR-5 it was 16.4 µM; in the assay on MKN1, 14.6 µM; in the assay with A549, 11.4 µM; with PC-3 it was 11.4 µM; with NCI-H460, 0.0811 µM. For the same compound, the GI50 with ACHN was 11.1 µM; in the assay on OVCAR-8, 12.3 µM; with HCT-116 it was 10.4 µM; in the assay with DU-145, 12.7 µM; in the assay on HBC-5, 12.4 µM; with DMS273 it was 0.0893 µM. Moreover, the GI50 is 14 µM in the assay with SNB-78; 14.5 µM in the assay with MKN45; 14.8 µM in the assay on KM-12; 10.1 µM in the assay on LOX-IMVI; 13.3 µM in the assay with SK-OV-3; 13.6 µM in the assay on NCI-H226. The same compound had a GI50 with HCT-15 of 10.1 µM.
On to `C=C1CCC2C(C)(CCC=C(C)C)C(O)CCC2(C)C1Cc1c(OC)oc(C)c(C(=O)OC)c1=O` (stereo not drawn) [Compound 14], for which the GI50 is 10.8 µM in the assay with MKN74; 18.6 µM in the assay on OVCAR-5; 16.1 µM with MKN1; 11 µM in the assay with A549; 10.1 µM in the assay on PC-3; 0.0735 µM in the assay with NCI-H460. The concentration for 50% growth inhibition (GI50) is 10.9 µM in the assay on ACHN; 2.61 µM in the assay on NCI-H23; 1.54 µM with NCI-H522; 8.57 µM in the assay on OVCAR-8; 2.83 µM with HCT-116; 11.8 µM in the assay with DU-145. Also, the GI50 is 12.1 µM with HBC-5; 0.289 µM with DMS273; 14.7 µM with SNB-78; 13 µM in the assay with MKN45; 14.1 µM with KM-12; 10.8 µM with LOX-IMVI. Also, the GI50 in the assay with SK-OV-3 is 13.6 µM; with NCI-H226, 11.7 µM; in the assay on HCT-15, 10.2 µM.
Consider `C=C1CCC2C(C)(CCC=C(C)C)C(O)CCC2(C)C1Cc1c(OC)oc(C)c(C)c1=O` (stereo not drawn) [Compound 11], for which the 50% growth inhibitory concentration (GI50) was 4.76 µM with MKN74; 42.4 µM with OVCAR-5; 30.6 µM in the assay with MKN1; 0.0865 µM in the assay with NCI-H460; 11 µM in the assay on ACHN; 1.95 µM with NCI-H522. Also, the concentration for 50% growth inhibition (GI50) with OVCAR-8 is 3.61 µM; in the assay on HCT-116 it was 0.736 µM; in the assay with DU-145, 16.5 µM; in the assay on HBC-5 it was 13.9 µM; with DMS273, 0.199 µM; with SNB-78, 21.9 µM. Further, the GI50 with MKN45 is 18.6 µM; in the assay on NCI-H226, 18.2 µM; with HCT-15, 1.22 µM.
For `C=C1CC[C@@H]2[C@](C)(CC[C@H]3O[C@H](C=C(C)C)C[C@@]23C)[C@@H]1Cc1c(OC)oc(C)c(C)c1=O` [Compound 22, O-methylated higginsianin A], the GI50 in the assay with MKN74 is 3.33 µM; in the assay on OVCAR-5, 13.4 µM; in the assay on MKN1, 10.2 µM; in the assay on NCI-H460 it was 0.0807 µM; in the assay on ACHN, 2.33 µM; in the assay on NCI-H23 it was 0.729 µM. Moreover, the GI50 is 0.478 µM in the assay on NCI-H522; 4.78 µM in the assay on OVCAR-8; 1.78 µM in the assay with HCT-116; 7.06 µM in the assay on HBC-5; 0.224 µM with DMS273; 9.75 µM in the assay with SNB-78. In addition, the GI50 in the assay on MKN45 was 10.4 µM; in the assay with KM-12, 10.6 µM; in the assay with LOX-IMVI, 1.17 µM; with SK-OV-3 it was 10.6 µM; in the assay with NCI-H226 it was 3.79 µM.
Consider `C=C1CCC2C(C)(CC(=O)C=C(C)C)C(O)CCC2(C)C1Cc1c(O)c(C)c(C)oc1=O` (stereo not drawn) [Compound 7], for which the GI50 in the assay with A549 was 66.7 µM; in the assay with PC-3, 83 µM; with NCI-H460, 11.6 µM; with NCI-H23, 13.2 µM; in the assay with OVCAR-8, 35.7 µM; in the assay with HCT-116, 37.3 µM. Also, the GI50 in the assay with HBC-5 is 32.5 µM; in the assay with DMS273, 14.1 µM; in the assay with KM-12 it was 56 µM; in the assay on LOX-IMVI it was 12.2 µM; in the assay on SK-OV-3, 60.8 µM; in the assay with NCI-H226 it was 33.4 µM. Also, the GI50 with HCT-15 is 55.6 µM.
